Results published in US20030153551A1, “Method for treating ocular neovascular diseases” (priority 2002, published 2003).

Columns and labels:
[1] = tested on: retinal neovascularization; experiment: Oxygen-induced ischemic retinopathy in mice, lectin staining of retinal endothelial cells with image analysis; format: in vivo, C57/BL6J mice
Protocol: Ophthalmol. Vis. […] Vehicle (1% DMSO) or vehicle containing various concentrations of the drug (volume=10 μl per gram body weight) is placed in the stomach by gavage.
Some slides are counterstained with hematoxyln and all were mounted with Cytoseal.

[2] = tested on: endothelial cells of mature vessels; experiment: Effect on mature retinal vessels of adult mice, lectin staining with image analysis; format: in vivo, Adult C57BL6J mice; details: 600 mg/kg by gavage once a day, 5 days
Protocol: After 5 days of treatment, the mice are sacrificed, eyes are rapidly removed and frozen in optimum cutting temperature embedding compound (OCT; Miles Diagnostics, Elkhart, Ind.) or fixed in 10% phosphate-buffered formalin and embedded in paraffin. Adult C57BL6J mice are also treated by gavage with the drug or vehicle and after 5 days, they are sacrificed and their eyes are processed for frozen or paraffin sections.

[3] = tested on: retinal vascular development; experiment: Retinal vascular development in neonatal mice, fluorescein-dextran perfused retinal flat mounts; format: in vivo, newborn C57/BL6J mice; details: daily subcutaneous 100 mg/kg
Protocol: Litters of newborn C57/BL6J mice (neonatal mice) are divided into treatment and control groups which received daily subcutaneous injections of 100 mg/kg of the drug or vehicle, respectively. At 7 or 10 days of age, the mice are anesthetized with ether, and perfused with 1 ml of phosphate-buffered saline containing 50 mg/ml of fluorescein-labeled dextran (2×10^6 average mw, Sigma, St. Louis, Mo.) as described by Tobe et al., Evolution of Neovascularization in Mice with Overexpression of VEGF in Photoreceptors, Invest. Ophthalmol. Vis. Sci. 39, 180-188 (1998). The eyes are removed and fixed for 1 hour in 10% phosphate-buffered formalin. The cornea and lens are removed and the entire retina is carefully dissected from the eyecup. Radially cuts are made from the edge of the retina to the equator in all 4 quadrants, and the retina is flat-mounted in Aquamount with photoreceptors facing upward. […] Image-Pro™ Plus is used to measure the distance from the center of the optic nerve to the leading front of developing retinal vessels in each quadrant and the mean is used as a single experimental value.

[4] = tested on: choroidal neovascularization; experiment: Laser-induced choroidal neovascularization in mice, lectin staining with integrated area measurement; format: in vivo, C57BL/6J mice; details: 400 mg/kg/day orally by gavage
Protocol: C57BL/6J mice are treated in accordance with the Association for Research in Vision and Ophthalmology resolution for the treatment of animals. […] J Path, in press. Briefly, 4 to 5 week old male C57BL/6J mice are anesthetized with ketamine hydrochloride (100 mg/kg body weight) and the pupils are dilated with 1% tropicamide. Three burns of krypton laser photocoagulation (100 μm spot size, 0.1 seconds duration, 150 mW) are delivered to each retina using the slit lamp delivery system of a Coherent Model 920 Photocoagulator and a hand held cover slide as a contact lens. Burns are performed in the 9, 12, and 3 o'clock positions of the posterior pole of the retina. Production of a bubble at the time of laser, which indicates rupture of Bruch's membrane, is an important factor in obtaining CNV, so only mice in which a bubble is produced for all three burns are included. […] After 14 days, the mice are killed with an overdose of pentobarbital sodium, and their eyes are rapidly removed and frozen in optimal cutting temperature embedding compound (OCT). […] Slides are rinsed with 0.05M TBS and incubated 2 hours at 37° C. with biotinylated lectin. […] After a 10 minute incubation in 0.05 M Tris buffer, pH 7.6, slides are developed in Histomark Red (Kirkegaard and Perry) to give a red reaction product, and mounted with Cytoseal (Stephens Scientific, Riverdale, N.J.). Some slides are counterstained with Contrast Blue (Kirkegaard and Perry).
For each lesion, area measurements are made for all sections on which some of the lesion appeared and added together to give the integrated area measurement. Values are averaged to give one experimental value per mouse. A 2-sample t-test for unequal variances is performed to compare the log mean integrated area between treatment and control mice.

Compound: CO[C@@H]1[C@H](N(C)C(=O)c2ccccc2)C[C@H]2O[C@]1(C)n1c3ccccc3c3c4c(c5c6ccccc6n2c5c31)C(=O)NC4 [NBS, N-benzoyl-staurosporine]
- endothelial cell staining on and in the retinas by image analysis versus vehicle-treated mice ([1]; 60 mg/kg once a day): significantly less
- clumps of neovascularization on the surface of the retina versus vehicle-treated control mice ([1]; 60 mg/kg twice a day, gavage): less than clumps in the retina of the vehicle-treated control mice
- clumps of neovascularization on the surface of the retina versus vehicle-treated control mice ([1]; 300 mg/kg twice a day, gavage): less than clumps in the retina of the vehicle-treated control mice
- endothelial cell staining on and in the retinas by image analysis versus vehicle-treated mice ([1]; 600 mg/kg once a day): significantly less
- endothelial cell staining on the surface and within the retina compared to vehicle-treated mice ([1]; 600 mg/kg once a day for 5 days, gavage): dramatic decrease
- total area of endothelial staining in the retina or appearance of retinal vessels compared to vehicle-treated mice [2]: no difference
- toxicity to endothelial cells of mature vessels [2]: not toxic
- difference in distance from the optic nerve to the vascular front between treated and control mice ([3]; at 7 and 10 days of age): statistically significant
- extent of retinal vessels toward the periphery ([3]; at 7 days of age): only extend slightly more than halfway to the periphery
- extent of superficial capillary bed ([3]; at 10 days of age): has not yet reached the edge of the retina
- integrated area of lectin staining per lesion ([4]; 14 days after laser, vehicle 0.0695621±0.0073960 mm^2, p=0.004): 0.009018±0.001754 mm^2
- appearance of overlying retinal vessels in eyes of treated mice ([4]; two weeks after laser): appear normal
- choroidal neovascularization at the site of each laser-induced rupture of Bruch's membrane ([4]; two weeks after laser): very little if any choroidal neovascularization
